In ChEMBL document CHEMBL4340504, “Caged-xanthone from Cratoxylum formosum ssp. pruniflorum inhibits malignant cancer phenotypes in multidrug-resistant human A549 lung cancer cells through down-regulation of NF-κB” (Bioorg Med Chem, 2019):
Values after ≈ are worked out from the molar mass of the structure shown. Active and inactive are the calls of the source. No cut-off for these calls is given here.

How the values were obtained:
Homo sapiens [1] = organism: Homo sapiens; experiment: Inhibition of NFkappaB in human A549RT-eto cells assessed as down regulation of Bmi1 expression by immunoblotting analysis; format: cell-based
Homo sapiens [2] = organism: Homo sapiens; experiment: Inhibition of NFkappaB in human A549RT-eto cells assessed as suppression of sphere formation by measuring decrease in number of spheroid formation at 1.5 ug/mL treated for 24 hrs followed by cell culture for 6 days and measured over 48 hrs by optical microscopic method; format: cell-based
Homo sapiens [3] = organism: Homo sapiens; experiment: (§1) Cytotoxicity against human A549RT-eto cells assessed as reduction in cell viability after 72 hrs by MTT assay; format: functional, cell-based
[4] = as §1; format: functional, cell-based
Homo sapiens [5] = organism: Homo sapiens; experiment: Induction of apoptosis in human A549RT-eto cells assessed as reduction in […] 9 level at 1 to 5 ug/ml measured after 24 hrs by immunoblotting analysis; format: functional, cell-based
Homo sapiens [6] = organism: Homo sapiens; experiment: Inhibition of NFkappaB in human A549RT-eto cells assessed as reduction in epithelial-mesenchymal transition by measuring down regulation of N-Cadherin expression at 1 to 1.5 ug/ml after 24 hrs by immunoblotting analysis; format: cell-based
Homo sapiens [7] = organism: Homo sapiens; experiment: Induction of apoptosis in human A549RT-eto cells transfected with NF-kappaB siRNA assessed as increase in pro-caspase 9 expression at 1.5 ug/ml by immunoblotting analysis; format: functional, cell-based
Homo sapiens [8] = organism: Homo sapiens; experiment: Cytotoxicity against human A549RT-eto cells assessed as cell death after 24 hrs by MTT assay; format: functional, cell-based
Homo sapiens [9] = organism: Homo sapiens; experiment: Inhibition of NFkappaB in human A549RT-eto cells assessed as down regulation of Oct4 expression by immunoblotting analysis; format: cell-based
Homo sapiens [10] = organism: Homo sapiens; experiment: Down regulation of NFkappaB expression in human A549RT-eto cells at 1 to 5 ug/ml measured after 24 hrs by immunoblotting analysis; format: functional, cell-based
Homo sapiens [11] = organism: Homo sapiens; experiment: Inhibition of NFkappaB in human A549RT-eto cells assessed as reduction in epithelial-mesenchymal transition by measuring down regulation of vimentin expression at 1 to 1.5 ug/ml after 24 hrs by immunoblotting analysis; format: cell-based
Homo sapiens [12] = organism: Homo sapiens; experiment: Induction of apoptosis in human A549RT-eto cells transfected with NF-kappaB siRNA assessed as increase in cleaved PARP expression at 1.5 ug/ml by immunoblotting analysis; format: functional, cell-based
[13] = Antiinvasive activity in human A549RT-eto cells assessed as reduction in cell invasion at 1.5 ug/ml measured after 24 hrs using hematoxylin-eosin by microscopy-based transwell assay relative to control; format: functional
Homo sapiens [14] = organism: Homo sapiens; experiment: Down regulation of P-gp expression in human A549RT-eto cells transfected with NF-kappaB siRNA at 1.5 ug/ml by immunoblotting analysis; format: functional, cell-based
Homo sapiens [15] = organism: Homo sapiens; experiment: Inhibition of NFkappaB in human A549RT-eto cells assessed as downregulation of Nanog expression by immunoblotting analysis; format: cell-based
Homo sapiens [16] = organism: Homo sapiens; experiment: Inhibition of NFkappaB in human A549RT-eto cells assessed as down regulation of S0x2 expression by immunoblotting analysis; format: cell-based
Homo sapiens [17] = organism: Homo sapiens; experiment: Induction of apoptosis in human A549RT-eto cells transfected with NF-kappaB siRNA assessed as increase in pro-caspase 8 expression at 1.5 ug/ml by immunoblotting analysis; format: functional, cell-based
Homo sapiens [18] = organism: Homo sapiens; experiment: Induction of apoptosis in human A549RT-eto cells assessed as increase in PARP level at 1 to 5 ug/ml measured after 24 hrs by immunoblotting analysis; format: functional, cell-based
Homo sapiens [19] = organism: Homo sapiens; experiment: Inhibition of NFkappaB in human A549RT-eto cells assessed as suppression of sphere formation by measuring decrease in spheroid size at 1.5 ug/mL treated for 24 hrs followed by cell culture for 6 days and measured over 48 hrs by optical microscopic method; format: cell-based
Homo sapiens [20] = organism: Homo sapiens; experiment: Inhibition of NFkappaB in human A549RT-eto cells assessed as down regulation of P-gp expression at 1 to 5 ug/ml measured after 24 hrs by immunoblotting analysis; format: cell-based
Homo sapiens [21] = organism: Homo sapiens; experiment: Antimigratory activity in human A549RT-eto cells assessed as decrease in cell migration at 1.5 ug/ml for 24 hrs by phase contrast microscopy-based scratch would healing assay; format: functional
Homo sapiens [22] = organism: Homo sapiens; experiment: Down regulation of NFkappaB expression in human A549RT-eto cells transfected with NF-kappaB siRNA at 1.5 ug/ml by immunoblotting analysis; format: functional, cell-based
Homo sapiens [23] = organism: Homo sapiens; experiment: Inhibition of NFkappaB in human A549RT-eto cells assessed as reduction in epithelial-mesenchymal transition by measuring up regulation of E-Cadherin expression at 1 to 1.5 ug/ml after 24 hrs by immunoblotting analysis; format: cell-based
A549 = experiment: Cytotoxicity against human A549 cells assessed as reduction in cell viability after 72 hrs by MTT assay; format: functional, cell-based; settings: A549, 72 h
Homo sapiens [24] = organism: Homo sapiens; experiment: Induction of apoptosis in human A549RT-eto cells assessed as reduction in […] 8 level at 1 to 5 ug/ml measured after 24 hrs by immunoblotting analysis; format: functional, cell-based

With `CO[C@@]12C=C3C(=O)c4c(O)cccc4O[C@@]34[C@@H](C1)C(C)(C)O[C@@]4(CC=C(C)C)C2=O` the inhibition (Homo sapiens [1]) was “Dose-dependent effect”, the inhibition (Homo sapiens [2]) was “Active” and the Activity (Homo sapiens [3]) was “Dose-dependent effect”. The IC50 [4] was 4.96 µg/mL (≈ 12.1 µM), the Activity (Homo sapiens [5]) was “Active” and the inhibition (Homo sapiens [6]) was “Active”. For the same molecule, the Activity (Homo sapiens [7]) was “Active”, the Activity (Homo sapiens [8]) was “Active” and the inhibition (Homo sapiens [9]) was “Dose-dependent effect”. The Activity (Homo sapiens [10]) was “Active”, the inhibition (Homo sapiens [11]) was “Active” and the Activity (Homo sapiens [12]) was “Active”. For the same molecule, the “fold change (FC)” value [13] was 2, the Activity (Homo sapiens [14]) was “Active” and the inhibition (Homo sapiens [15]) was “Dose-dependent effect”. For the same molecule, the inhibition (Homo sapiens [16]) was “Dose-dependent effect”, the Activity (Homo sapiens [17]) was “Active” and the Activity (Homo sapiens [18]) was “Active”. For the same molecule, the inhibition (Homo sapiens [19]) was “Active”, the inhibition (Homo sapiens [20]) was “Active” and the Activity (Homo sapiens [21]) was “Active”. For the same molecule, the Activity (Homo sapiens [22]) was “Active”, the inhibition (Homo sapiens [23]) was “Active” and the IC50 (A549) was 2.51 µg/mL (≈ 6.12 µM). For the same molecule, the Activity (Homo sapiens [24]) was “Active”.
